# Source: PubChem BioAssay (NCI)
#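 Values below derive from 48-hour exposures of cells grown in 96-well plates, with endpoints linearly interpolated between the two concentrations bracketing the appropriate inhibition level. TGI is the concentration that stops growth completely.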
# What was measured:
# Assay in all cases: growth of human tumour cells (NCI), 48 h
# OVCAR-3 ovarian = tested on: OVCAR-3 ovarian
# U251 CNS = tested on: U251 CNS
# MALME-3M melanoma = tested on: MALME-3M melanoma
# SF-295 CNS = tested on: SF-295 CNS
# RXF 393 renal = tested on: RXF 393 renal
# SK-MEL-2 melanoma = tested on: SK-MEL-2 melanoma
# OVCAR-5 ovarian = tested on: OVCAR-5 ovarian
# SNB-19 CNS = tested on: SNB-19 CNS
# NCI-H226 lung = tested on: NCI-H226 lung
# MOLT-4 leukemia = tested on: MOLT-4 leukemia
# SR leukemia = tested on: SR leukemia
# SN12C renal = tested on: SN12C renal
# MDA-MB-231 breast = tested on: MDA-MB-231 breast
# OVCAR-4 ovarian = tested on: OVCAR-4 ovarian
# 786-0 renal = tested on: 786-0 renal
# M14 melanoma = tested on: M14 melanoma
# SNB-75 CNS = tested on: SNB-75 CNS
# TK-10 renal = tested on: TK-10 renal
# BT-549 breast = tested on: BT-549 breast
# HOP-92 NSCLC = tested on: HOP-92 NSCLC
# NCI-H460 lung = tested on: NCI-H460 lung
# ACHN renal = tested on: ACHN renal
# NCI/ADR-RES ovarian = tested on: NCI/ADR-RES ovarian
# NCI-H23 lung = tested on: NCI-H23 lung
# HCC-2998 colon = tested on: HCC-2998 colon
# NCI-H522 lung = tested on: NCI-H522 lung
# MDA-N = tested on: MDA-N
# UACC-257 melanoma = tested on: UACC-257 melanoma
# EKVX NSCLC = tested on: EKVX NSCLC
# CAKI-1 renal = tested on: CAKI-1 renal
# MDA-MB-435 = tested on: MDA-MB-435
# SK-MEL-28 melanoma = tested on: SK-MEL-28 melanoma
# HCT-15 colon = tested on: HCT-15 colon
# LOX IMVI melanoma = tested on: LOX IMVI melanoma
# SK-OV-3 ovarian = tested on: SK-OV-3 ovarian
# COLO 205 colon = tested on: COLO 205 colon
# RPMI-8226 leukemia = tested on: RPMI-8226 leukemia
# DU-145 prostate = tested on: DU-145 prostate
# SW-620 colon = tested on: SW-620 colon
# PC-3 prostate = tested on: PC-3 prostate
# IGROV1 ovarian = tested on: IGROV1 ovarian
# A549 NSCLC = tested on: A549 NSCLC
# HOP-62 NSCLC = tested on: HOP-62 NSCLC
# SK-MEL-5 melanoma = tested on: SK-MEL-5 melanoma
# KM12 colon = tested on: KM12 colon
# SF-539 CNS = tested on: SF-539 CNS
# K-562 leukemia = tested on: K-562 leukemia
# UACC-62 melanoma = tested on: UACC-62 melanoma
# HS 578T breast = tested on: HS 578T breast
# SF-268 CNS = tested on: SF-268 CNS
# UO-31 renal = tested on: UO-31 renal
# HT29 colon = tested on: HT29 colon
# CCRF-CEM leukemia = tested on: CCRF-CEM leukemia
# A498 renal = tested on: A498 renal
# HL-60(TB) leukemia = tested on: HL-60(TB) leukemia
# T-47D breast = tested on: T-47D breast
# OVCAR-8 ovarian = tested on: OVCAR-8 ovarian
# MCF7 breast = tested on: MCF7 breast
# HCT-116 colon = tested on: HCT-116 colon
structure (smiles),measurement,setting,value
O=c1oc2ccccc2c(O)c1/C=N\c1nc(-c2ccc(O)c(O)c2)cs1,TGI,OVCAR-3 ovarian,5.94 µM
same,TGI,U251 CNS,17.3 µM
same,TGI,MALME-3M melanoma,9.17 µM
same,TGI,SF-295 CNS,> 100 µM
same,TGI,RXF 393 renal,18.1 µM
same,TGI,SK-MEL-2 melanoma,7.04 µM
same,TGI,OVCAR-5 ovarian,31.9 µM
same,TGI,SNB-19 CNS,39.1 µM
same,TGI,NCI-H226 lung,42.2 µM
same,TGI,MOLT-4 leukemia,3.34 µM
same,TGI,SR leukemia,4.43 µM
same,TGI,SN12C renal,15.6 µM
same,TGI,MDA-MB-231 breast,18.7 µM
same,TGI,OVCAR-4 ovarian,27.5 µM
same,TGI,786-0 renal,10.2 µM
same,TGI,M14 melanoma,10.3 µM
same,TGI,SNB-75 CNS,15.4 µM
same,TGI,TK-10 renal,10.7 µM
same,TGI,BT-549 breast,25.8 µM
same,TGI,HOP-92 NSCLC,28.5 µM
same,TGI,NCI-H460 lung,14.3 µM
same,TGI,ACHN renal,9.77 µM
same,TGI,NCI/ADR-RES ovarian,> 72.2 µM
same,TGI,NCI-H23 lung,9.87 µM
same,TGI,HCC-2998 colon,16.3 µM
same,TGI,NCI-H522 lung,5.29 µM
same,TGI,MDA-N,18.8 µM
same,TGI,UACC-257 melanoma,10.3 µM
same,TGI,EKVX NSCLC,28.4 µM
same,TGI,CAKI-1 renal,16.5 µM
same,TGI,MDA-MB-435,20.4 µM
same,TGI,SK-MEL-28 melanoma,24.1 µM
same,TGI,HCT-15 colon,14.9 µM
same,TGI,LOX IMVI melanoma,14.7 µM
same,TGI,SK-OV-3 ovarian,21.4 µM
same,TGI,COLO 205 colon,6.76 µM
same,TGI,RPMI-8226 leukemia,5.3 µM
same,TGI,DU-145 prostate,17.9 µM
same,TGI,SW-620 colon,9.64 µM
same,TGI,PC-3 prostate,10.6 µM
same,TGI,IGROV1 ovarian,23.9 µM
same,TGI,A549 NSCLC,26.6 µM
same,TGI,HOP-62 NSCLC,31.2 µM
same,TGI,SK-MEL-5 melanoma,16.9 µM
same,TGI,KM12 colon,29.6 µM
same,TGI,SF-539 CNS,12.5 µM
same,TGI,K-562 leukemia,10.4 µM
same,TGI,UACC-62 melanoma,16.9 µM
same,TGI,HS 578T breast,> 80.8 µM
same,TGI,SF-268 CNS,22.1 µM
same,TGI,UO-31 renal,9.24 µM
same,TGI,HT29 colon,23.6 µM
same,TGI,CCRF-CEM leukemia,4.58 µM
same,TGI,A498 renal,> 46.7 µM
same,TGI,HL-60(TB) leukemia,8.31 µM
same,TGI,T-47D breast,32 µM
same,TGI,OVCAR-8 ovarian,> 100 µM
same,TGI,MCF7 breast,17.4 µM
same,TGI,HCT-116 colon,7.61 µM
